Values of other authors in US9750732B2, “Urinary triaosylceramide (Gb3) as a marker of cardiac disease” (Baylor Research Institute, priority 2009, dated 2017).
Where two headings read alike, the source gives them in different places.

How the values were obtained:
APC: protein S [1] = details: purified proteins
APC: protein S [2] = details: exogenously added; in the presence but not absence of APC: protein S
[3] = in multicomponent vesicles containing phosphatidylserine and phosphatidylcholine

| Substance | inactivation of factor Va by APC: protein S (APC: protein S [1]; glycolipid alone) | inactivation of factor Va by APC: protein S (APC: protein S [1]; [3]) | clotting times of normal plasma (APC: protein S [2]) |
| --- | --- | --- | --- |
| glycosylceramide [GlcCer] | enhanced | enhanced | dose-dependently prolonged clotting times |
| globotriaosylceramide [Gb3Cer] |  | enhanced | dose-dependently prolonged clotting times |
| lactosylceramide |  | enhanced |  |
| galactosylceramide |  | enhanced |  |
